According to patent US5834462A, “Tricyclic heterocyclic sulfonamide and sulfonic ester derivatives” (Eisai Co., Ltd., priority 1993, dated 1998):
Values after ≈ are worked out from the molar mass of the structure shown.

Tests used:
[1] = tested on: KB cells (human nasopharyngeal cancer cells); assay: in vitro Antitumor test on KB cells (MTT); format: cell-based; details: 72 h, 3 days incubation
Experimental: in vitro Antitumor test on KB cells (human nasopharyngeal cancer cells)
KB cells suspended in an RPMI1640 medium (mfd. by Nissui Seiyaku K. K.), which contained 10% of fetal calf serum, 100 U/mi of penicillin, 100 μg/ml of streptomycin, 5×10^-5 M of mercaptoethanol and 1 mM of sodium pyruvate, were inoculated in 1.25×10^3 portions (0.1 ml) into wells of a 96-well flat-bottomed microplate and then incubated in an incubator containing 5% of carbon dioxide at 37° C. for a day.
A compound of the present invention was dissolved in dimethyl sulfoxide in a concentration of 20 mg/ml and diluted with a 10% fetal calf serum-RPMI1640 culture medium to a concentration of 100 μg/ml. By using this concentration as the highest level, threefold serial dilution was performed with a 10% fetal calf serum-RPMI1640 culture medium. Then it was added in 0.1 ml portions into the wells of the above-mentioned plate wherein the KB cells had been incubated followed by incubation in the incubator containing 5% of carbon dioxide at 37° C. for 3 days.
After incubating, an MTT (3-(4,5-dimethylthiazol-2-yl)-2,5-diphenyltetrazolium bromide) solution (3.3 mg/ml) was added in 0.05 ml portions into the wells and the incubation was effected for additional 1 hour. After sucking off the supernatant from each well, the formazane thus formed was dissolved in 0.1 ml of dimethyl sulfoxide. Then the absorbance at 540 nm was measured with a microplate reader and employed as an indication of the vital cell count. In accordance with the following equation, the inhibitory ratio was calculated and the 50% inhibitory concentration (IC50) of the test compound was determined. [formula] T: absorbance of a well containing the test commpound. C: absorbance of a well containing no test compound.

[2] = tested on: M5076 (mouse reticulum cell sarcoma); assay: in vivo antitumor test on M5076 transplanted in BDF1 mice; details: intraperitoneal, 4 times every other day from 10th day
Text: in vivo antitumor test on M5076 (mouse reticulum cell sarcoma)
1×10^6 M5076 cells were subcutaneously transplanted into the lateral parts of BDF1 mice (aged 6 to 9 weeks, female). A compound of the present invention was suspended in physiological saline containing 3.5% of dimethyl sulfoxide and 6.5% of Tween 80 and a given amount of the obtained suspension was intraperitoneally administered to the animals 4 times from the 10th day after the transplantation once a day every other day. The control group comprised 10 to 12 animals, while the test group comprised 5 or 6 animals.
On the 21st day after the transplantation, tumors were taken out and weighed. Then the tumor multiplication inhibitory ratio of each test group based on the control group was determined in accordance with the following equation. [formula] T: average tumor weight of the test group. C: average tumor weight of the control group.

SMILES	IC50 [1]	Inhibitory ratio (tumor weight, 21st day) ([2]; 100 mg/kg/day)	Survival ratio on 21st day ([2]; 100 mg/kg/day)	Inhibitory ratio (tumor weight, 21st day) ([2]; 25 mg/kg/day)	Survival ratio on 21st day ([2]; 25 mg/kg/day)
COc1ccc(S(=O)(=O)Nc2cccc3c2Nc2ccc(O)cc2CO3)cc1 [Example 30, N-(5,11-Dibydro-2-bydroxydihenz(b,e)(1,4)oxazepin-6-yl)-4-methoxybenzensulfonamide]	0.028 µg/mL (≈ 0.0703 µM)	82%	100%		
COc1ccc(S(=O)(=O)Nc2cccc3c2Nc2ccc(F)cc2CN3)cc1 [Example 32, N-(10,11-Dihydro-2-fluoro-5dibenzo(b,e) (1,4)-diazepin-6-yl)-4-methoxybenzenesulfonamide]	0.082 µg/mL (≈ 0.205 µM)			84%	100%
